Experiments:
[1] = species on record: Cavia porcellus; experiment: Compound was evaluated for the ability to inhibit CCK-stimulated amylase release in pancreatic acinar cells of guinea pig; format: functional
[2] = molecular target: T1, Cholecystokinin receptor type A (Cavia porcellus, UniProt Q63931); experiment: Compound was evaluated for the binding affinity against Cholecystokinin type A receptor in pancreatic acinar cell
T1 sequence (Q63931 whole entry): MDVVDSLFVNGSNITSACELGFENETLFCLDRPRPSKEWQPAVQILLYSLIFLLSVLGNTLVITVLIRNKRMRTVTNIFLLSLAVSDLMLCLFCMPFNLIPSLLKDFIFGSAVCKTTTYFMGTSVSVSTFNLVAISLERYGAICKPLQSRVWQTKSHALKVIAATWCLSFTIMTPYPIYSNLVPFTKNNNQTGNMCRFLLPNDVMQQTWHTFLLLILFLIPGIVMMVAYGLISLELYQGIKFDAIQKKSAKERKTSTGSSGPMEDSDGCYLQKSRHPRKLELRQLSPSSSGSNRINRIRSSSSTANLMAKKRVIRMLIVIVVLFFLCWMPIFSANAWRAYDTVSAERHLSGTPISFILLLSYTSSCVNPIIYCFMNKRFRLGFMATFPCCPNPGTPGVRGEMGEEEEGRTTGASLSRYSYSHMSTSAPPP

[3] = molecular target: T1, Cholecystokinin receptor type A; experiment: Compound was evaluated for the binding affinity against CCK A receptor in pancreatic acinar cell
[4] = molecular target: T2, Gastrin/cholecystokinin type B receptor (Cavia porcellus, UniProt H0VZC5); experiment: Compound was evaluated for the binding affinity against CCK A receptor in cortical cells.; format: cell-based
[5] = molecular target: T2, Gastrin/cholecystokinin type B receptor; experiment: Compound was evaluated for the binding affinity against Cholecystokinin type A receptor in cortical cells.; format: cell-based

T2 sequence (H0VZC5 1-426): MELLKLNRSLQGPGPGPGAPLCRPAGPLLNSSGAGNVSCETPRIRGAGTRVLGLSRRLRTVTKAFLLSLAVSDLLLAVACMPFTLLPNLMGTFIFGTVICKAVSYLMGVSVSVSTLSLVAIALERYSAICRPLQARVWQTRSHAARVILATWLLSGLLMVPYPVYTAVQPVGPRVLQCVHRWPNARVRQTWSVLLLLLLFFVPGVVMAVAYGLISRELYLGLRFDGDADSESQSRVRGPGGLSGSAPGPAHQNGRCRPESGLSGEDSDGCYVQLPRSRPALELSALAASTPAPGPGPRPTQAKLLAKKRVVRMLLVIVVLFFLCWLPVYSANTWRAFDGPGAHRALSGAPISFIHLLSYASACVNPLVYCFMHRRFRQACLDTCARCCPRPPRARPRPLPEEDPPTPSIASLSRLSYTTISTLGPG

Structure (SMILES)	IC50 [2] [nM]	IC50 [3] [nM]	IC50 [4] [nM]	IC50 [5] [nM]	IC50 [1] [nM]
CCCCCN(CCCCC)C(=O)[C@@H](CCC(=O)O)NC(=O)c1cc2ccccc2[nH]1					36
CCCCCN(CCCCC)C(=O)[C@@H](CCC(=O)O)NC(=O)c1ccc2ccccc2n1	63				
CCCCCN(CCCCC)C(=O)[C@@H](CCC(=O)O)NC(=O)c1cnc2ccccc2c1					16
CCCCCN(CCCCC)C(=O)[C@@H](CCC(=O)O)NC(=O)c1ccc(Cl)c(Cl)c1					180
CCCCCN(CCCCC)C(=O)[C@H](CCC(=O)O)NC(=O)c1cc2ccccc2[nH]1					590

Now from value to compound, other results behind:

IC50 [2] [nM]	IC50 [3] [nM]	IC50 [4] [nM]	IC50 [5] [nM]	Structure (SMILES)	IC50 [1] [nM]
	31	11000		CCCCCN(CCCCC)C(=O)[C@@H](CCC(=O)O)NC(=O)c1ccc2ncccc2c1	65
320			11000	CCCCCN(CCCCC)C(=O)[C@@H](CCC(=O)O)NC(=O)c1cccc2ccccc12	280
	4900			CCCCCN(CCCCC)C(=O)[C@H](CCC(=O)O)NC(=O)c1ccc(Cl)c(Cl)c1	11000
12			4200	CCCCCN(CCCCC)C(=O)[C@@H](CCC(=O)O)NC(=O)c1ccc2ccccc2c1 [AMIGLUMIDE]	36
			32000	CCCCCN(CCCCC)C(=O)[C@@H](CCC(=O)O)NC(=O)c1c[nH]c2ccccc12	830

— ChEMBL document CHEMBL1124616, “Hybrid cholecystokinin (CCK) antagonists: new implications in the design and modification of CCK antagonists” (J Med Chem, 1989)
